Results published in US20250032444A1, “Prevention and treatment of depressive disorders and conditions promoted by protease containing plasma extracellular vesicles (PCpEV)” (Evexys Biotech Oy, priority 2021, published 2025).

Legend:
Huh7 liver cells = assay: Uptake of HA, ADAM10/17, Hck and MMPs into EV from HAS-induced Huh7 liver cells (Western blot); format: cell-based
Description: (B): Hymecromone inhibits the uptake of HA into EV. […] Subsequently EV were purified from culture supernatant of Huh7 cells that were not treated for HAS induction (nil), from Huh7 cells that were treated for HAS induction (48 h; HAS-nd.) and from Huh7 cells that were treated for has induction and additionally incubated with Hymecromone (HAS-ind.+HyCr.). CD81 served as a loading control for pEV. Cell lysates from 293 T cells served as positive control for HA.
Subsequently EV were purified from culture supernatant of Huh7 cells that were not treated for HAS induction (nil), from Huh7 cells that were treated for HAS induction (48 h; HAS-ind.) and from Huh7 cells that were treated for HAS induction and additionally incubated with Hymecromone (HAS-nd.+HyCr.). Red arrows indicate the enzymatic active form of ADAM10 and ADAM17. CD81 served as a loading control for pEV. Cell lysates from 293 T cells served as positive control for HA.
In vitro a concentration of 300 μmol was sufficient to completely block the uploading of HA, Hck, and ADAM10 into vesicles. Whether these concentrations can be reached in circulation after oral uptake is not clear, as Hymecromone is efficiently metabolized in the […]. On the other hand PCpEV are generated by liver cells where Hymecromone is metabolized. […] Furthermore, there are likely inter-individual differences with respect to Hymecromone metabolization.
293Tcells were cultured in DMEM (Lonza), 10% (v/v) fetal bovine serum (FBS) with Penicillin-Strepto-mycin at 37° C., 5% CO2. For transient transfection, plasmids encoding the indicated proteins were transfected with Lipofectamine® LTX with Plus™ Reagent (Invitrogen) according to the manufacturer's instructions, or using the classical calcium phosphate procedure. Cells were used for experiments 24-72 h after transfection. Hymecromone was added at a final concentration of […] after transfection. For immunoblotting 20 μg of cellular protein lysate and 10 μg of EV lysate were loaded per lane. The latter corresponded to the production/secretion of 2-4 mio 293T cells within 48 h transfected and grown in one 10 cm dish.

Choriod Plexus = assay: Accumulation of labeled EV in the choroid plexus after tail vein injection of 4MU-treated EV; format: in vivo; conditions: 72 h after injection of 4MU-treated EV into tail veins of a mouse, n=4/condition; FIG. 3
Description: (A) Accumulation/absence of accumulation of labeled pEV (red) in the Choriod Plexus 72 h after injection of 4MU-treated EV into tail veins of a mouse (n=4/condition). (B) IHC of a hippocampal section and quantification of EVc pos. cells. Statistical significance by one-way ANOVA and Tukey's test, ***p<0.005.

[1] = Treatment of patients with 4MU; format: in vivo; conditions: 4×300 mg 4MU
[2] = cited from earlier work
three isotypes of HAS = conditions: cited from earlier work

In the case of Cc1cc(=O)oc2cc(O)ccc12 [Hymecromone, 4-methylumbelliferone], the “uptake of ADAM10 and 17 and Hck into EV” value (Huh7 liver cells; Huh7 cells treated for HAS induction (48 h) and incubated with Hymecromone, FIG. 2) is reported as “inhibits”, the “uptake of HA into EV” value (Huh7 liver cells; Huh7 cells treated for HAS induction (48 h) and incubated with Hymecromone, Western blot, FIG. 1B) is reported as “inhibits” and the “concentration sufficient to completely block the uploading of HA, Hck, and ADAM10 into vesicles” value (Huh7 liver cells; in vitro) is reported as 300 µmol. The “incorporation of LMW-HA, ADAM10/17, Hck, and MMPs into extracellular vesicles” value (Huh7 liver cells; pharmacological inhibition of HAS activity) was “efficiently blocked”, the “EV upload and CP targeting” value (Choriod Plexus) was “blocks” and the “clinical outcome, Long COVID” value ([1]; 32 old patient) was “fully recovered”. For the same compound, the “clinical outcome, Alzheimer's disease (AD)-associated depression” value ([1]; patient) was “improved significantly”, the “serious side effects in clinical trials” value ([2]; at least 182 patients treated in clinical trials) was “no serious side effects” and the “fraction of unchanged Hymecromone reaching systemic circulation” value ([2]; efficient metabolism by the liver) was “low”. The “inhibition of the three isotypes of HAS” value (three isotypes of HAS) was “efficiently inhibited”.
